Experimental data reported in PMC8197230, “Orientated Immobilization of FAD-Dependent Glucose Dehydrogenase on Electrode by Carbohydrate-Binding Module Fusion for Efficient Glucose Assay” (International Journal of Molecular Sciences, 2021).

How the values were obtained:
[1] = test system: T1, GDH-NL-CBM2; assay: PMS/DCIP spectrophotometric assay at […] nm, Michaelis-Menten non-linear fit; format: biochemical, Aspergillus niger; settings: 0.1 M phosphate buffer pH 6.0, 37 °C; PMS and DCIP as electron acceptors; free enzyme
T1 construct: gene FAD-GDH; secreted from Pichia pastoris GS115, Ni-purified

[2] = test system: T2, GDH (wild-type FAD-GDH); assay: as above; format: biochemical, Aspergillus niger; settings: 0.1 M phosphate buffer pH 6.0, 37 °C; PMS and DCIP as electron acceptors; free enzyme
T2 construct: signal peptide (first 63 bp, 21 residues) removed; C-terminal His tag kept; secreted from Pichia pastoris GS115 (pPIC9k), glycosylated; Ni-purified

Km [1]: 11.8 mM | Km [2]: 12.3 mM
Compound: OC[C@H]1OC(O)[C@H](O)[C@@H](O)[C@@H]1O (some centres unmarked) [glucose]
